Data on twelve molecules can be found in PMC10096398, “Discovery of Novel EGFR Inhibitor Targeting Wild-Type and Mutant Forms of EGFR: In Silico and In Vitro Study” (Molecules, 2023).

Where a name gives a salt, the structure may show the parent alone. Read-outs that look alike come from different tables or passages of the source.

Data set [1] concerns A549. As to the kind of experiment: MTT cell viability assay. In kind it is cell-based. The settings on record: Homo sapiens, read-out: IC50 (μM) A549. The method, then:
(§1) The cytotoxicity activities of potent PD derivatives obtained from the SIE method against A549 and H1975, as well as Vero (which are adherent cells), were assessed using MTT (3-(4,5-dimethyl-2-thiazolyl)-2,5-diphenyl-2H-tetrazolium bromide) assays. The A549 and Vero cells were grown in complete DMEM medium whereas H1975 cells were grown in complete RPMI medium supplemented with 10% (v/v) FBS, 100 U/mL penicillin and 100 µg/mL streptomycin. All cells were routinely cultured at 37 °C in a 5% (v/v) CO2, 95% (v/v) air humidified incubator. A549 (5 × 10^3 cells per well), H1975 (5 × 10^3 cells per well), and Vero (2 × 10^3 cells per well) cells were seeded into 96-well plates and incubated overnight. After cell attachment, cells were replenished using fresh medium with 0.1% FBS containing various concentrations of potent PD derivatives and known drugs and then incubated at 37 °C for 72 h. After that, fresh medium containing MTT solution (5 mg/mL) was added and incubated at 37 °C. After 3 h, the formed formazan crystal was dissolved with 100 μL of dimethyl sulfoxide (DMSO). Finally, the absorbance of formazan solution was measured at a wavelength 570 nm using a microplate reader (Infinite M200 microplate reader, Tecan, Männedorf, Switzerland). The independent treatments were repeated in triplicate. The IC50 determination of compounds was achieved using GraphPad Prism version 9.0.
(In general: Tetrazolium dyes change colour on reduction, which living cells bring about.)

Data set [2] relates to H1975. As to the kind of experiment: MTT cell viability assay. The conditions noted are these: Homo sapiens, read-out: IC50 (μM) H1975. In kind it is cell-based. Here is the method: as §1
Data set [3] relates to Vero. Kind of data set: MTT cell viability assay, normal cell line. The data set is classed as cell-based, monkey. The conditions noted are these: 72 h, read-out: IC50 (μM) Vero. Here is the method:
as §1

The target of data set [4] is L858R/T790M/C797S EGFR (Homo sapiens, UniProt P00533, C797S/L858R/T790M). Kind of data set: EGFR inhibitory activity, ADP-Glo kinase assay. In kind it is biochemical. (ADP-Glo first removes unused ATP, then detects ADP through luciferase.)
Procedure: (§2) Firstly, 8 µL of buffer (40 mM Tris-HCl pH 7.5, 20 mM MgCl2, and 0.1 mg/mL bovine serum albumin) were added to a 384-well plate (Promega, solid white). […] Thirdly, 5 µL of the ADP-Glo reagent was added and incubated for 40 min. Finally, 10 µL of kinase detection reagent was added and incubated at room temperature for 30 min and was detected by measuring the luminescence using a microplate reader (Infinite M200 microplate reader, Tecan, Männedorf, Switzerland).
Data set [5] deals with wild-type EGFR (Homo sapiens, UniProt P00533). As to the kind of experiment: EGFR inhibitory activity, ADP-Glo kinase assay. The data set is classed as biochemical. The conditions noted are these: for IC50: ADP-Glo; for EGFR inhibitory screening: single 1 µM concentration.
Procedure: as §2
Data set [6] concerns the target L858R/T790M EGFR (Homo sapiens, UniProt P00533, L858R/T790M). Kind of data set: EGFR inhibitory activity, ADP-Glo kinase assay. The data set is classed as biochemical. The conditions noted are these: for IC50: ADP-Glo.
Procedure: as §2
[7] abbreviates: Primates, Vero, Vero normal cells, MTT.

For orientation: melting point means the temperature of the solid-liquid transition. Turning to `Cc1ncc(Cn2ccnc2)c2cc(C(=O)c3ccc(Br)cc3)oc12.Cl`, the melting point was 278 to 280 °C.
`Cc1ncc(Cn2cnc(Cl)c2Cl)c2cc(C(=O)c3ccc(Br)cc3)oc12` registered a melting point of 183 to 185 °C.
Still for that read-out and setting: the same measure for `Cc1ncc(CN2CCN(C=O)CC2)c2cc(C(=O)c3ccc(Br)cc3)oc12.Cl`: 233 to 239 °C; for `Cc1ncc(CN2CCN(Cc3cccnc3)CC2)c2cc(C(=O)c3ccc4c(c3)OCCO4)oc12` (as salt: hydrochloride) [PD13, (2,3-Dihydrobenzo[d][1,4]dioxin-6-yl){7-methyl-4-[(4-(pyridin-3-ylmethyl)piperazin-1-yl)methyl]furo[2,3-c]pyridin-2-yl}methanone dihydrochloride]: 224 to 227 °C.
By IC50 is commonly meant the midpoint of a concentration-inhibition curve. For the molecule `CN(C)C/C=C/C(=O)Nc1cc2c(Nc3ccc(F)c(Cl)c3)ncnc2cc1O[C@H]1CCOC1` [Afatinib], the half-maximal inhibitory concentration (IC50) in data set [1] (A549, 72 h) was 34.7 ± 0.67 µM; in data set [2] (NCI-H1975, 72 h) it was 27.3 ± 1.87 µM; in data set [3] (Primates, Vero) it was above 50 µM.
Take `C#Cc1cccc(Nc2ncnc3cc(OCCOC)c(OCCOC)cc23)c1` [Erlotinib]: the IC50 in data set [1] (A549, 72 h) is 19.4 ± 0.79 µM; in data set [2] (NCI-H1975, 72 h), 41.8 ± 2.19 µM; in data set [3] (Primates, Vero), above 30 µM.
On the same counts, the results for `C=CC(=O)Nc1cc(Nc2nccc(-c3cn(C)c4ccccc34)n2)c(OC)cc1N(C)CCN(C)C` [Osimertinib] are 25.3 ± 1.21 µM, 18.3 ± 2 µM and above 50 µM.
The molecule `COc1ccc(C(=O)c2cc3c(CO)cnc(C)c3o2)cc1` [PD1, [4-Hydroxymethyl-7-methylfuro[2,3-c]pyridin-2-yl](4-methoxyphenyl)methanone] displayed a melting point of 147 to 148 °C.
`Cc1ncc(CN2CCN(Cc3ccccn3)CC2)c2cc(C(=O)c3ccc(Br)cc3)oc12.Cl.Cl` [PD3, (4-Bromophenyl){7-methyl-4-[(4-(pyridin-2-ylmethyl)piperazin-1-yl]methyl}furo[2,3-c]pyridin-2-yl)methanone dihydrochloride] gave a melting point of 224 to 225 °C.
Molecule `Cc1ncc(CN2CCN(Cc3cccnc3)CC2)c2cc(C(=O)c3ccc(Br)cc3)oc12.Cl.Cl` [PD4, (4-Bromophenyl){7-methyl-4-[(4-(pyridin-3-ylmethyl)piperazin-1-yl]methyl}furo[2,3-c]pyridin-2-yl)methanone dihydrochloride] came in with a melting point of 243 to 247 °C. Further, the IC50 in data set [4] was determined as 104 ± 3.62 nM. Further, in data set [5], half-maximal inhibition (IC50) required 4.78 ± 0.73 nM and the EGFR inhibitory screening entry was “only against wild-type EGFR”. Also, the “EGFR inhibitory activity compared to erlotinib” value in data set [5] (ratio of IC50 values) is above 2 fold. Besides, the IC50 in data set [1] (A549, MTT, 72 h) was determined as 19.7 ± 0.59 µM. For the same molecule, the concentration for half-maximal inhibition (IC50) in data set [2] (NCI-H1975, H1975, MTT, 72 h) came out at 27.3 ± 1.02 µM. Moreover, the IC50 in data set [3] (setting [7]) was below 100 µM. Also, in data set [3] (Vero normal cells, MTT), the IC50 is above 50 µM. Further, in data set [6], inhibition was half-maximal at 91 ± 2.01 nM (IC50).
Take `Cc1ncc(CN2CCN(CCC#N)CC2)c2cc(C(=O)c3ccc(Br)cc3)oc12` [PD10, 3-{4-[(2-(4-bromobenzoyl)-7-methylfuro[2,3-c]pyridin-4-yl)methyl]piperazin-1-yl}propanenitrile]: the melting point is 129 to 132 °C.
As for `Cc1ncc(CN2CCN(Cc3cccnc3)CC2)c2cc(C(=O)c3ccc4c(c3)OCCO4)oc12` [PD13, (2,3-Dihydrobenzo[d][1,4]dioxin-6-yl){7-methyl-4-[(4-(pyridin-3-ylmethyl)piperazin-1-yl)methyl]furo[2,3-c]pyridin-2-yl}methanone dihydrochloride], the IC50 in data set [4] was 21.9 ± 1.79 nM; in data set [5], 11.6 ± 1.3 nM; in data set [1] (A549, MTT, 72 h) it was 18.1 ± 1.57 µM; in data set [2] (NCI-H1975, H1975, MTT, 72 h) it was 33.9 ± 0.86 µM; in data set [3] (setting [7]), above 100 µM; in data set [6] it was 10.5 ± 0.71 nM. Further, in data set [4], the “IC50 (nM) L858R/T790M/C797S” value is “double-digit nanomolar range”. Besides, the EGFR inhibitory screening entry in data set [5] and in data set [6] (single 1 µM concentration) was “active” each time.
